Laboratory results as given in patent publication EP3722295A1, “ANTI-VIRAL AND ANTI-CANCER ACTIVITY OF PYRIDO[2,3-D]PYRIMIDINE AND OXADIAZIOLE COMPOUNDS” (priority 2019, dated 2020).
Where two headings read alike, the source gives them in different places.

Assays:
FOS:JUN = molecular target: T1, FOS:JUN (Homo sapiens, UniProt P01100+P05412); test: FOS:JUN split luciferase interaction assay (specificity control); format: cell-based
T1 construct: expressed in transfected cells

RED-SMU1 complex = RED-SMU1 complex (Homo sapiens, UniProt Q2TAY7); test: In cellulo split luciferase-based RED-SMU1 interaction assay; format: cell-based; settings: for inhibition at 60 µM: A549 cells, relative to DMSO
A549 cells = test: Cell viability assay (CellTiter-Glo, ATP levels) and observation of cell monolayers; format: cell-based, human
Experimental: Cell viability was assessed using the CellTiter-Glo® One Solution Assay kit (Promega) according to the manufacturer's instruction.

[1] = molecular target: T2, endogenous RED-SMU1 complex (Homo sapiens, UniProt Q2TAY7); test: Western blot of steady-state levels of endogenous RED and SMU1 proteins; format: cell-based
T2 construct: Effect on the steady-state levels of the endogenous RED and SMU1 proteins; endogenous in cells; host or cells: A549

PB2 mRNA = PB2 mRNA splicing, semi-quantitative RT-PCR; format: cell-based, influenza A/WSN/33; settings: WSN-infected A549 cells, 60 µM
Experimental: (§1) Total RNA and poly(A)+ RNAs were extracted subsequently using the RNeasy Mini Kit (Qiagen) and Oligotex mRNA Mini kit (Qiagen), following the manufacturer's protocol. Reverse transcription (RT) was performed on 5-10 ng of total mRNA (or poly(A)+ RNA equivalent) using the Maxima First Strand cDNA Synthesis Kit (Thermo Scientific). Quantitative real-time PCR was performed on 2 µl of a 1/10 dilution of the RT reaction using the Luminaris Color Probe qPCR Master Mix (Thermo Scientific) and a Light Cycler 480 (Roche). The levels of NS1/NS2 and M1/M2 mRNAs were determined and normalized with respect to GAPDH mRNA levels using the protocol described in (23). The levels of PB2/PB2-S1 mRNAs were determined by semi-quantitative RT-PCR as described in (35).

viral M1 mRNAs = test: M1 mRNA splicing, RT-qPCR; format: cell-based, influenza A/WSN/33; settings: WSN-infected A549 cells, 60 µM
Experimental: as §1

RSV-Firefly virus = test: RSV-Firefly replication assay (specificity control); format: cell-based, human Respiratory Syncytial Virus
WSN virus = test: Production of infectious particles in A549 cells, plaque assay; format: cell-based, influenza A/WSN/33; settings: 60 µM
WSN-PB2-Nanoluc virus = format: cell-based, influenza A/WSN/33
viral NS1 mRNA = test: NS1 mRNA splicing, quantitative real-time PCR; format: cell-based, influenza A/WSN/33; settings: WSN-infected A549 cells, 60 µM, 6 h incubation
Experimental: as §1

T1 sequence (P01100 whole entry): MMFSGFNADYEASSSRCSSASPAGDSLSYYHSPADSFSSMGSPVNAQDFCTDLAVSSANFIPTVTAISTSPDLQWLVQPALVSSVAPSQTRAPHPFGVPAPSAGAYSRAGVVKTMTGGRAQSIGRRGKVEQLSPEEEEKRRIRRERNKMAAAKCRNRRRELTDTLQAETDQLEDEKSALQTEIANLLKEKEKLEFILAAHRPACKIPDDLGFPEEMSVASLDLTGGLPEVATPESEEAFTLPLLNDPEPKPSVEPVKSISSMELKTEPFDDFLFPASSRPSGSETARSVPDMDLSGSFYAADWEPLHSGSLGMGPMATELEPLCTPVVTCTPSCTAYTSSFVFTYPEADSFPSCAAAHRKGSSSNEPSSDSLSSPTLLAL
T1 sequence (P05412 whole entry): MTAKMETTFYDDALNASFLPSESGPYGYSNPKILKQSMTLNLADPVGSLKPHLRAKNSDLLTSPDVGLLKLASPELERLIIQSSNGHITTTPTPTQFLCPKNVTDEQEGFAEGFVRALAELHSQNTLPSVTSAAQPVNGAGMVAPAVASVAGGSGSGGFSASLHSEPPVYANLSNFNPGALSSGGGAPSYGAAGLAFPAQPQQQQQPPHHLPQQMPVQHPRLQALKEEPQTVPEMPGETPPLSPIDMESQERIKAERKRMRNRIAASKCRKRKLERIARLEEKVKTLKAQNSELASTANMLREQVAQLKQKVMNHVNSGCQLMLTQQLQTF

Row | Structure (SMILES) | effect in FOS:JUN interaction assay (FOS:JUN) | EC50 (RED-SMU1 complex) | inhibition at 60 µM (RED-SMU1 complex) | growth of the tumoral cell line A549 (A549 cells) | cytotoxicity / cytostatic effect (A549 cells; A549 cells, 15, 30 and 60 µM, 24 and 48 hours of incubation) | Expression levels of RED and SMU1 proteins [1] | PB2 mRNA splicing (PB2 mRNA) | splicing of the viral M1 mRNAs (viral M1 mRNAs) | RSV-Firefly signals (RSV-Firefly virus) | reduction of production of WSN infectious particles (WSN virus; 24 hpi) | reduction of production of WSN infectious particles (WSN virus; 48 hpi) | reduction of production of WSN infectious particles (WSN virus; 72 hpi) | reduction of WSN-Nanoluc signals (WSN-PB2-Nanoluc virus) | reduction of NS2 to NS1 mRNA ratio (viral NS1 mRNA) | logP (physchem) | effect in FOS:JUN interaction assay (FOS:JUN; specificity control, same concentrations as RED-SMU1 assay) | RSV-Firefly signals (RSV-Firefly virus; A549 cells, 7.5 - 60 µM, 24 hpi) | inhibition of viral growth (WSN-PB2-Nanoluc virus)
1 | C#CCCCNc1ncc2cc(-c3cc(OC)cc(OC)c3)c(NC(=O)NC(C)(C)C)nc2n1 [LSP61] | none of the two compounds showed any significant effect | ~15 µM | 90% | inhibits the growth | no cytotoxicity but some cytostatic effect | decreased | not affected | did not inhibit | only moderate reductions | about 1000 fold | ~100 fold | ~10 fold | 25 fold | 50% | 4.8 |  |  | 
2 | COc1cc(OC)cc(-c2cc3cnc(NCc4cn(C5CCN(Cc6ccccc6)CC5)nn4)nc3nc2NC(=O)NC(C)(C)C)c1 [LSP641] |  |  | 40% |  |  |  | not affected | did not inhibit |  |  |  |  |  | 30% |  | none of the two compounds showed any significant effect | only moderate reductions | 
3 | CCN(CC)CCCCNc1ncc2cc(-c3cc(OC)cc(OC)c3)c(NC(=O)NC(C)(C)C)nc2n1 [PD173074, reference compound] |  |  |  |  |  |  |  |  |  |  |  |  |  |  |  |  |  | did not inhibit viral growth as efficiently as LSP61
